Laboratory results taken from patent US20100081689A1, “Methods and Compositions for the Treatment of Iron Toxicity” (Georgetown University, priority 2008, published 2010).

Legend:
[1] = test system: rat aortic rings; test: animal or person; format: in vivo, Sprague-Dawley rats; conditions: for relaxation response to acetylcholine at 100 nM in iron treated rats given antioxidant: 100 nM acetylcholine, iron sucrose plus Tempol (drinking water), N-acetylcysteine 140 mg/kg iv or Vitamin C 100 mg/kg iv, iron alone 22±10%; for Maximum relaxation of aortic ring in iron-treated animals given antioxidant: iron sucrose 14 mg/kg iv plus Tempol 2 mmol/L in drinking water 72 h or N-acetylcysteine 140 mg/kg iv, iron alone 46±14%
Procedure: Forty seven normal Sprague-Dawley rats (280-350 g) were included in this study. Twenty three rats were injected in the tail vein with 14 mg/kg iron sucrose (Venofer, American Regent) twenty four hours before dissection of the aortic ring.
Twenty four hours after iron sucrose injection, the rats were sacrificed by interperitoneal injection of 100 mg/kg Inactin. Blood was collected for measurement of markers of oxidative stress and the thoracic aorta isolated and placed in ice cold PSS.
The surrounding tissue of aorta was carefully dissected away and care taken to not damage the endothelium. The aorta was then cut into a 4-5 mm width transverse ring and then mounted isometrically in 10 mL organ bath containing oxygenated PSS warmed to 37° C. and gassed with air.
The aortic ring was suspended under a resting force of […] and allowed to equilibrate for 30 minutes before administration of any agents. The bath was perfused with fresh PSS and was washed with PSS after each test response to the administered agents. The aortic ring was preconstricted with 10 nM phenylephrine prior to the addition of acetylcholine, and allowed to equilibrate for another 30 minutes.
Isometric contraction was measured on an oscillographic recorder. Subsequently acetylcholine was added to the bath in increasing doses of 1 nM to 100 μM and the relaxation response to each dose was recorded as the percentage of the drop in the starting resting force. […] P<0.05 was considered significant.

[2] = light stability of Tempol solutions; format: physicochemical; conditions: solutions left in sunlight
[3] = test system: aortic ring; conditions: cited from earlier work; for iron-induced endothelial dysfunction of the blood vessel: rats, iron co-administered with the antioxidant
[4] = test system: oxidative stress markers; conditions: cited from earlier work
[5] = test system: MDA levels; conditions: CKD patients treated with iron gluconate; cited from earlier work

CC1(C)CC(O)CC(C)(C)N1[O] [Tempol, 4-hydroxy-2,2,6,6-tetramethyl-1-piperidine-1-oxyl]
relaxation response to acetylcholine at 100 nM in iron treated rats given antioxidant [1]: 48±17% | Maximum relaxation of aortic ring in iron-treated animals given antioxidant [1]: 75±15% | stability of solutions in sunlight [2]: discolor when left in sunlight | iron-induced endothelial dysfunction of the blood vessel [3]: completely attenuated

CC(=O)OCC[N+](C)(C)C [acetylcholine]
IC50 ([1]; Rattus norvegicus, iv, aortic rings preconstricted with 10 nM phenylephrine, all treatment groups, read-out: IC50 for all dose response curves (acetylcholine relaxation of aortic ring)): 100 nM

iron sucrose
relaxation response of aortic ring to increasing doses of acetylcholine ([1]; rat, in vivo): significantly reduced | relaxation response to acetylcholine at 100 nM ([1]; rat, in vivo): 22±10% | Maximum relaxation of aortic ring (percentage of the drop in the starting resting force) ([1]; rat, in vivo, iv, 14 mg/kg): 46±14% | reduction in aortic ring vasodilation in response to acetylcholine ([3]; rat, in vivo, iv): 40%

O=C1O[C@H]([C@@H](O)CO)C(O)=C1O [Vitamin C]
relaxation response to acetylcholine at 100 nM in iron treated rats given antioxidant [1]: 41±8% | relaxation response to 100 nM through 100 μM of acetylcholine, addition to iron treatment ([1]; Vitamin C 100 mg/kg iv with iron sucrose, only statistically significant at 100 nM acetylcholine (FIG. 3)): increased the relaxation response | reducing iron-induced oxidative stress markers ([4]; dialysis population): not been shown to be effective | effect when co-administered with iron ([4]; subjects with physiologic Vitamin C levels): pro-oxidant effect

CC(=O)N[C@@H](CS)C(=O)O [N-acetylcysteine]
relaxation response to acetylcholine at 100 nM in iron treated rats given antioxidant [1]: 42±13% | Maximum relaxation of aortic ring in iron-treated animals given antioxidant [1]: 69.9±13% | MDA level decrease after iron gluconate [5]: not observed | iron-induced endothelial dysfunction of the blood vessel [3]: completely attenuated
